In patent US20160279110A1, “COMPOSITIONS AND METHODS FOR TREATING CANCER” (UNIVERSITY OF ROCHESTER, priority 2015, published 2016):

Tests used:
NMD = assay: β-Gl Norm/Ter NMD reporter in MCF7 cells during doxorubicin treatment; type: cell-based, human; conditions: MCF7, 5 μM doxorubicin, by 5 h (from ~65% before)
Procedure: In FIG. 9a, MCF7 cells were treated with […] doxorubicin for the hours (h) indicated. mRNA-to-pre-mRNA ratios for the specified transcripts were measured using RT-qPCR and normalized to the ratio at 0 h, which is defined as 100%. The level of each pre-mRNA was also normalized to the level of GAPDH mRNA, and the normalized level at 0 h is defined as 100%. There are separate scales for the graphs of mRNA/pre-mRNA ratios (left) and the graphs of pre-mRNA/GAPDH mRNA ratios (right). Separately, MCF7 cells were transfected with plasmids encoding reporter β-Gl Norm mRNA or β-Gl Ter mRNA together with a plasmid encoding the reference MUP mRNA and subsequently exposed to doxorubicin (5 μM) for the times indicated. Reporter transcript levels were normalized to the level of MUP mRNA, and the normalized level of β-Gl Ter mRNA was presented as a percentage of the normalized level of β-Gl Norm mRNA, which is defined as 100% at 0 h. Error bars=S.E.M., asterisk=p<0.05 relative to the 0 h time point using the Student's t-test. #=pre-mRNA levels below qPCR detection threshold. n>3 independent biological replicates. […] HeLa and MCF7 cells were transfected with either control (Ctrl) siRNA or UPF1 siRNA, the latter to deplete endogenous UPF1 protein to less than 5% of the normal level (top western blots). mRNA/pre-mRNA ratios were then assessed using RT-qPCR as in FIG. 1a (bottom). […]

UPF1 [1] = assay: Western blot of UPF1 CP generation in Daudi B lymphoblasts; type: cell-based, human; conditions: 40 ng/mL TNF-α or 2 μg/mL doxorubicin
Procedure: (§1) FIG. 10b is essentially as in a, but using lysates of HEK293T cells exposed to 1 μM staurosporine. FIG. 10c is essentially as in a, but using lysates of human Daudi B lymphoblasts exposed to 40 ng/mL TNF-α or 2 μg/mL doxorubicin. FIG. 10d is essentially as in a, but using lysates of human Jurkat T cells exposed to 1 μM staurosporine. FIG. 10e is essentially as in a, but using lysates of canine MDCK cells exposed to 2 μM staurosporine. FIG. 10f is essentially as in a, but using lysates of bovine MDBK cells exposed to 2 μM staurosporine. FIG. 10g is essentially as in a, but using lysates of Chinese Hamster Ovary (CHO) cells exposed to 2 μM staurosporine. FIG. 10h is essentially as in a, but using lysates of African green monkey COS-7 cells exposed to 2 μM staurosporine or 2 μg/mL doxorubicin. At least two apoptotic inducers were used for each cell line, and at least two cell lines were tested with each apoptotic inducer.
Cells were lysed, and protein was isolated using hypotonic buffer that consists of 10 mM Tris-C1, pH 7.4, 10 mM NaCl, 2 mM EDTA, 0.5% Triton X-100, 2 mM benzamidine, 1 mM PMSF, NEM (50 μg/mL), 1× phosphatase inhibitor cocktail (Roche), and 1× protease inhibitor cocktail (Roche; Basel, Switzerland). […] Immunoreactivity was assessed using SuperSignal West Pico or Femto (Pierce Biotechnology; Waltham, Mass.). […]

UPF1 [2] = assay: Western blot of UPF1 CP generation in COS-7 cells; type: cell-based, African green monkey; conditions: COS-7, 2 μM staurosporine or 2 μg/mL doxorubicin
Procedure: as §1
Cells were lysed, and protein was isolated using hypotonic buffer that consists of 10 mM Tris-C1, pH 7.4, 10 mM NaCl, 2 mM EDTA, 0.5% Triton X-100, 2 mM benzamidine, 1 mM PMSF, NEM (50 μg/mL), 1× phosphatase inhibitor cocktail (Roche), and 1× protease inhibitor cocktail (Roche; Basel, Switzerland). […] Immunoreactivity was assessed using SuperSignal West Pico or Femto (Pierce Biotechnology; Waltham, Mass.).

COc1cccc2c1C(=O)c1c(O)c3c(c(O)c1C2=O)C[C@@](O)(C(=O)CO)C[C@@H]3O[C@H]1C[C@H](N)[C@H](O)[C@H](C)O1 [doxorubicin, Doxorubicin]
level of β-Gl Ter mRNA as % of the level of β-Gl Norm mRNA (NMD): ~85%
UPF1 CP generation (UPF1 [1]): led to generation of the UPF1 CP prior to maximal PARP cleavage
UPF1 CP generation (UPF1 [2]): yielded a UPF1 CP
